Measurements taken from article PMC8468039, “Development of New Meridianin/Leucettine-Derived Hybrid Small Molecules as Nanomolar Multi-Kinase Inhibitors with Antitumor Activity” (Biomedicines, 2021).
Read-outs that look alike come from different tables or passages of the source.

Experiments:
[1] = tested on: panel of 60 different tumor cell lines; experiment: NCI antitumor assay, panel of 60 tumor cell lines; format: cell-based; conditions: single dose 10 µM, result in words
Method: (§1) The antitumor assay was performed according to the protocol of the Drug Evaluation Branch, NCI, Bethesda. A 48 h drug exposure protocol was adopted, and sulforhodamine B (SRB) assay was utilized to assess the cell growth and viability, as reported earlier.
(§2) The inhibition results of tumor cell growth by the newly synthesized compounds (5a–5g) are described in Table 4. The reported measurements have been performed at the NIH National Cancer Institute, USA by a standardized assay including a panel of 60 different tumor cell lines (Supplementary Data). The following cancer cell types were included in these assays: Leukemia, non-small cell lung cancer, colon cancer, CNS cancer, melanoma, ovarian cancer, renal cancer, prostate, and breast cancer. […] Additionally, the 3,4-dimethoxy substituted compound (5b) also suffered poor activity against the cancer cell lines.

COLO 205 = experiment: NCI growth inhibition (SRB) assay; format: cell-based; conditions: Homo sapiens, COLO 205, Colon Cancer, single dose 10 µM, 48 h, read-out: Percent Growth Inhibition (GI)
Method: as §1, §2

UO-31 = experiment: NCI growth inhibition (SRB) assay; format: cell-based; conditions: Homo sapiens, UO-31, Renal Cancer, single dose 10 µM, 48 h, read-out: Percent Growth Inhibition (GI)
Method: as §1, §2

SF-539 = experiment: NCI growth inhibition (SRB) assay; format: cell-based; conditions: Homo sapiens, SF-539, CNS Cancer, single dose 10 µM, 48 h, read-out: Percent Growth Inhibition (GI)
Method: as §1, §2

K-562 = experiment: NCI growth inhibition (SRB) assay; format: cell-based; conditions: Homo sapiens, K562, K-562, Leukemia, single dose 10 µM, 48 h, read-out: Percent Growth Inhibition (GI)
Method: as §1, §2

MCF7 = experiment: NCI growth inhibition (SRB) assay; format: cell-based; conditions: Homo sapiens, MCF7, Breast Cancer, single dose 10 µM, 48 h, read-out: Percent Growth Inhibition (GI)
Method: as §1, §2

HOP-92 = experiment: NCI growth inhibition (SRB) assay; format: cell-based; conditions: Homo sapiens, HOP-92, Non-Small Cell Lung Cancer, single dose 10 µM, 48 h, read-out: Percent Growth Inhibition (GI)
Method: as §1, §2

SNB-75 = experiment: NCI growth inhibition (SRB) assay; format: cell-based; conditions: Homo sapiens, SNB-75, CNS Cancer, single dose 10 µM, 48 h, read-out: Percent Growth Inhibition (GI)
Method: as §1, §2

CAKI-1 = experiment: NCI growth inhibition (SRB) assay; format: cell-based; conditions: Homo sapiens, CAKI-1, Renal Cancer, single dose 10 µM, 48 h, read-out: Percent Growth Inhibition (GI)
Method: as §1, §2

CCRF-CEM = experiment: NCI growth inhibition (SRB) assay; format: cell-based; conditions: Homo sapiens, Leukemia, single dose 10 µM, 48 h, read-out: Percent Growth Inhibition (GI)
Method: as §1, §2

RXF 393 = experiment: NCI growth inhibition (SRB) assay; format: cell-based; conditions: RXF 393, Renal Cancer, single dose 10 µM; for inhibition at 10 µM: Homo sapiens, read-out: Percent Growth Inhibition (GI)
Method: as §1, §2

IGROV1 = experiment: NCI growth inhibition (SRB) assay; format: cell-based; conditions: Homo sapiens, IGROV-1, IGROV1, Ovarian Cancer, single dose 10 µM, 48 h, read-out: Percent Growth Inhibition (GI)
Method: as §1, §2

BRAF = molecular target: T1, BRAF (Homo sapiens, UniProt P15056); experiment: In vitro kinase inhibition assay (HotSpot, Reaction Biology); format: biochemical; conditions: single dose of 10 µM; 10 µM ATP as printed; read-out: Percent Inhibition, BRAF
T1 construct: purchased Reaction Biology Corp
Method: (§3) The in vitro kinase inhibition assay was carried out by Reaction Biology Corp. (Reaction Biology Corp., Chester, PA, USA) Kinase HotSpot^SM service (http://www.reactionbiology.com, accessed on 15 January 2021), following the previously reported methods. (For details, see Supplementary Material).
(§4) As mentioned in the introduction, to get insights about the kinase inhibition profile of the hybrid small molecule 5a, an in vitro screening over a panel of 14 cancer-related kinases was carried out. Accordingly, 10 µM concentrations of compound 5a were used in a kinase inhibition assay over various kinase groups and families in the presence of 10 µM ATP using HotSpotSM technology. To get a comprehensive picture of the inhibitory activities of the tested compound (5a) against the kinase panel, data are illustrated in Table 1. […] Compound 5a was also able to suppress the kinase activity of the epidermal growth factor receptor (EGFR), platelet-derived growth factor receptor-alpha (PDGFRα), and cyclin-dependent kinase 2 (CDK2) with modest inhibition values of 26.99 ± 0.9, 24.0 ± 0.4, and 20.1 ± 0.1%, respectively. […] Several studies have confirmed direct relationships between the most affected kinases (FMS, LCK, LYN, and DAPK1) and different human disorders including cancer.
(§5) 5. Protocol of Kinase assay
(§6) Kinases inhibitory activities were assessed by the HotSpot assay platform, which contained specific kinase/substrate pairs along with required cofactors. Base reaction buffer: 20 mM Hepes (pH 7.5), 10 mM MgCl2, 1 mM EGTA, 0.02% Brij35, 0.02 mg/ml BSA, 0.1 mM Na3VO4, 2 mM DTT, 1% DMSO. Testing compounds were dissolved in 100% DMSO to specific concentration. The serial dilution was conducted by Integra Viaflo Assist in DMSO. The reaction mixture containing the examined compound and 33P-ATP was incubated at room temperature for 2h and radioactivity was detected by filter-binding method. Kinase activity data were expressed as the percent remaining kinase activity in test samples compared to vehicle (dimethyl sulfoxide) reactions. IC50 values and curve fits were obtained using Prism (GraphPad Software).
(§7) 6. Biology raw data for IC50 determination
(§8) Paper ID Cpd ID NSC Number

CDK2/cyclin A = molecular target: T2, CDK2/cyclin A (Homo sapiens, UniProt P24941); experiment: as above; format: biochemical; conditions: single dose of 10 µM; 10 µM ATP as printed; read-out: Percent Inhibition, CDK2/cyclin A
T2 construct: purchased Reaction Biology Corp
Method: as §3, §4, §5, §6, §7, §8

c-MER = molecular target: T3, c-MER (Homo sapiens, UniProt Q12866); experiment: as above; format: biochemical; conditions: single dose of 10 µM; 10 µM ATP as printed; read-out: Percent Inhibition, c-MER
T3 construct: purchased Reaction Biology Corp
Method: as §3, §4, §5, §6, §7, §8

PAK1 = molecular target: T4, PAK1 (Homo sapiens, UniProt Q13153); experiment: as above; format: biochemical; conditions: single dose of 10 µM; read-out: Percent Inhibition, PAK1
T4 construct: purchased Reaction Biology Corp
Method: as §3, §4, §5, §6, §7, §8

KDR/VEGFR2 = molecular target: T5, KDR/VEGFR2 (Homo sapiens, UniProt P35968); experiment: as above; format: biochemical; conditions: single dose of 10 µM; 10 µM ATP as printed; read-out: Percent Inhibition, KDR/VEGFR2
T5 construct: purchased Reaction Biology Corp
Method: as §3, §4, §5, §6, §7, §8

JAK3 = molecular target: T6, JAK3 (Homo sapiens, UniProt P52333); experiment: as above; format: biochemical; conditions: single dose of 10 µM; read-out: Percent Inhibition, JAK3
T6 construct: purchased Reaction Biology Corp
Method: as §3, §4, §5, §6, §7, §8

T6 sequence (P52333 whole entry): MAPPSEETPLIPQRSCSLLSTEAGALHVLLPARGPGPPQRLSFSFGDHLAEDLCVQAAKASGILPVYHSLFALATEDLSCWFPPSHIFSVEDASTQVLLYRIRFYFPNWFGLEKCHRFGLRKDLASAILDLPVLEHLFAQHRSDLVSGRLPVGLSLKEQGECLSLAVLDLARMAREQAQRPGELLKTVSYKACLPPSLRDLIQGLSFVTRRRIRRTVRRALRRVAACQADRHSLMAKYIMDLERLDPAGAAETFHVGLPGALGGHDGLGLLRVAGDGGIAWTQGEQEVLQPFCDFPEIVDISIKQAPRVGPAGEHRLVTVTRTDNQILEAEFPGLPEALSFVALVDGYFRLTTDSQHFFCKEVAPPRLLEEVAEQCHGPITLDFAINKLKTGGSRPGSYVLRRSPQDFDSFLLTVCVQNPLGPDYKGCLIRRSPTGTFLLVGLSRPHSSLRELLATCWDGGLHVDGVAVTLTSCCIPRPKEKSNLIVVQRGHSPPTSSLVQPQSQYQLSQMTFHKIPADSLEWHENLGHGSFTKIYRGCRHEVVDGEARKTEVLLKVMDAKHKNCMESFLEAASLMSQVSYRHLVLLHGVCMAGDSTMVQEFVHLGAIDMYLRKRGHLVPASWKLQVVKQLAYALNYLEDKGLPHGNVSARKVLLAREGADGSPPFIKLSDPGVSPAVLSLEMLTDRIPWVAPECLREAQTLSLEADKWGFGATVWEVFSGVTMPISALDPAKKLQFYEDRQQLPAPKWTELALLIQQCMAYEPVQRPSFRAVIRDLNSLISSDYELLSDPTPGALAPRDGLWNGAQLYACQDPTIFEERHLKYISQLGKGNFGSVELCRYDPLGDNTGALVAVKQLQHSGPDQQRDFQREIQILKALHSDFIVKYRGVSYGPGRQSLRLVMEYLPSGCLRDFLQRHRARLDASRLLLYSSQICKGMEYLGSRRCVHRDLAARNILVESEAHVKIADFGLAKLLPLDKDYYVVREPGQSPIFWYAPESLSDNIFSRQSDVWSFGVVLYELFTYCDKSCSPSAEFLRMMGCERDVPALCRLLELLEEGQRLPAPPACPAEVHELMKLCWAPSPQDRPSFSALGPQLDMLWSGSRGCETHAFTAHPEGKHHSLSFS
T4 sequence (Q13153 whole entry): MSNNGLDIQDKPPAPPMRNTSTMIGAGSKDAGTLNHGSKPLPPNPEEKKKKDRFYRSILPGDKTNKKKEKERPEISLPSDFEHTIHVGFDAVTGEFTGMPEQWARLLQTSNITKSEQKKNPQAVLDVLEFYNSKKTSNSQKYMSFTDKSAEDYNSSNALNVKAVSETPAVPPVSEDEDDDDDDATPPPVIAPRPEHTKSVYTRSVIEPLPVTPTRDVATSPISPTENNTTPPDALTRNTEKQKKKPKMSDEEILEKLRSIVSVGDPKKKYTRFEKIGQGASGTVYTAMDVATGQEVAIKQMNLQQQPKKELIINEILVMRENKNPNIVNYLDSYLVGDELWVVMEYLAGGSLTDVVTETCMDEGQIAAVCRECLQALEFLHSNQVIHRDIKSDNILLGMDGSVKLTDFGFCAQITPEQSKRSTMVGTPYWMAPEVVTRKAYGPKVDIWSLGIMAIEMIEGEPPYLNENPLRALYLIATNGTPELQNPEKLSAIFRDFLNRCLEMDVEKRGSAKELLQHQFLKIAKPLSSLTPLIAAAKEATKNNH
T5 sequence (P35968 20-1356): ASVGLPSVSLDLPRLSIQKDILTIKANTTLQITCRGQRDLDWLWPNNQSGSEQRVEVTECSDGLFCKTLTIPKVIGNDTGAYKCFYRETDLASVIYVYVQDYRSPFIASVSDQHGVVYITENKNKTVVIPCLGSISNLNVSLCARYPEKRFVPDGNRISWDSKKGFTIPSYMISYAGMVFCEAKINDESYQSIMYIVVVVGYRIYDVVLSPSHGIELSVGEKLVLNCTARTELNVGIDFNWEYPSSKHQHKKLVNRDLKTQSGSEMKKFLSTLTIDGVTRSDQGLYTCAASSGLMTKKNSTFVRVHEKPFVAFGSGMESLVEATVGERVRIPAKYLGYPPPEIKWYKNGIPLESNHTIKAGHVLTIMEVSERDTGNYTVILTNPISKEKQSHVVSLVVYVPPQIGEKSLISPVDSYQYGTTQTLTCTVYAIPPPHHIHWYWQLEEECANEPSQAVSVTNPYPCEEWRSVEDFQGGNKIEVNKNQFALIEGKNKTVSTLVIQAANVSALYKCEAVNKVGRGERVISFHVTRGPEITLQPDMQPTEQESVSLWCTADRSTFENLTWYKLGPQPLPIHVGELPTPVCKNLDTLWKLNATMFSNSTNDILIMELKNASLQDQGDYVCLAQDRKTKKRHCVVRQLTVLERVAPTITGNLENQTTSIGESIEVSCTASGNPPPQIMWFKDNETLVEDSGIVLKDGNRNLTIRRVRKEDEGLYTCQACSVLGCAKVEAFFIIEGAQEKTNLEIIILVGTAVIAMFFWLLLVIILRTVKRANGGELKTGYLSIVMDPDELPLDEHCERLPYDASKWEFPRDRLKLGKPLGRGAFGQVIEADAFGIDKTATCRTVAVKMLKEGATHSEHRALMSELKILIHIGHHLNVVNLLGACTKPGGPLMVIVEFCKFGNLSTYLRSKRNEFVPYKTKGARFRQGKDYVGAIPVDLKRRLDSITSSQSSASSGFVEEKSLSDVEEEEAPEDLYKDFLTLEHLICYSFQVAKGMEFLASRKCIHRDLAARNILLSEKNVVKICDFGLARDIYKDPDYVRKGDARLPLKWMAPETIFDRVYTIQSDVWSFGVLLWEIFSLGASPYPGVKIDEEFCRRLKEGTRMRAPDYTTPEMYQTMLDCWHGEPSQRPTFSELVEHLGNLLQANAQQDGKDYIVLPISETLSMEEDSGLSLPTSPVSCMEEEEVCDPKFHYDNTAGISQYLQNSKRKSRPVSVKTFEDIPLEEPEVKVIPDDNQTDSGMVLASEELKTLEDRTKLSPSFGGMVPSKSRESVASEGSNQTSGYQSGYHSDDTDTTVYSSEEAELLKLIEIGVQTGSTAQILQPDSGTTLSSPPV
T1 sequence (P15056 whole entry): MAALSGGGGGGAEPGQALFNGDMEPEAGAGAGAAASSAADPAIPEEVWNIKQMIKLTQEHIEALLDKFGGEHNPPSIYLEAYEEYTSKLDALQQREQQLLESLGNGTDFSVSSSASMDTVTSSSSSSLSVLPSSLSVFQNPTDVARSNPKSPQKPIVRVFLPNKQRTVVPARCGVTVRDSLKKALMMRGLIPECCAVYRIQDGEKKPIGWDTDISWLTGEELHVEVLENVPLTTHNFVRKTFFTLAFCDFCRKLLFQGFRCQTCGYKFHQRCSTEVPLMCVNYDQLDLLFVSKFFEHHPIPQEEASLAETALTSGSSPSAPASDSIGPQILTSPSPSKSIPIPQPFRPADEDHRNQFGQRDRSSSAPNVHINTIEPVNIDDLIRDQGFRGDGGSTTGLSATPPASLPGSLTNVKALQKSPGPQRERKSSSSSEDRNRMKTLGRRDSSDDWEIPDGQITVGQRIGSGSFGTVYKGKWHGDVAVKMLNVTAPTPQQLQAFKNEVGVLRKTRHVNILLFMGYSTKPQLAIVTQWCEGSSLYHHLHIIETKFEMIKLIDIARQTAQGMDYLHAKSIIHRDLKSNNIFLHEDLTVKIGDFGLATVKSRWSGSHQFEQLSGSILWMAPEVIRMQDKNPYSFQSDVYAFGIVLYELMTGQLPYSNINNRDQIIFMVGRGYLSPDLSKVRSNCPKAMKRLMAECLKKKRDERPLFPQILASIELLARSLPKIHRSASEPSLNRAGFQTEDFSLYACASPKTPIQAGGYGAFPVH
T3 sequence (Q12866 21-999): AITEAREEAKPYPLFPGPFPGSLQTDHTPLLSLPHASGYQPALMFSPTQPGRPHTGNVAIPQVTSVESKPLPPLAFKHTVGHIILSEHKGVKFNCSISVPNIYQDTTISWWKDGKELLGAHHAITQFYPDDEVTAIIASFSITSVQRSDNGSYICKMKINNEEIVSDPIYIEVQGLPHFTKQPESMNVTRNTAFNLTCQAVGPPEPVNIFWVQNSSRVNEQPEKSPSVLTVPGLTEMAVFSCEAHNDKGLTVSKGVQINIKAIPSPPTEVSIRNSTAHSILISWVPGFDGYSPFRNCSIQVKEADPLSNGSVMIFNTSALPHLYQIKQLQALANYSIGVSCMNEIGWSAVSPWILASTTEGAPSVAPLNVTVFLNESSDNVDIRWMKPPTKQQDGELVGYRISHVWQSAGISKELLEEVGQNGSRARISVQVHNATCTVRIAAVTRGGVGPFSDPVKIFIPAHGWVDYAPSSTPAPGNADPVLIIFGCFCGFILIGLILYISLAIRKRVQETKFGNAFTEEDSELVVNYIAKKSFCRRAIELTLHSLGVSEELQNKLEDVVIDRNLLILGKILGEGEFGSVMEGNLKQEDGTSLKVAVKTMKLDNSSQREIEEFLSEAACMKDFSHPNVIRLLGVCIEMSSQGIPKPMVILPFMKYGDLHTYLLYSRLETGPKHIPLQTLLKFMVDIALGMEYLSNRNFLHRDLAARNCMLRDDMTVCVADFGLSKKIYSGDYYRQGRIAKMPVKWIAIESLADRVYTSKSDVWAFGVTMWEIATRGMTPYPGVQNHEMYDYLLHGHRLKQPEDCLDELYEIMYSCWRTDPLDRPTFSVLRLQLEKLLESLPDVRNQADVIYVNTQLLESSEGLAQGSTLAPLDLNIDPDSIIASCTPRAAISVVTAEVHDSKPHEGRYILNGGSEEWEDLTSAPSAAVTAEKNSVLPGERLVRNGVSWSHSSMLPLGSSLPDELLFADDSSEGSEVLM

| SMILES | inhibitory effects on the different cancer cell lines [1] | melting point [°C] | inhibition at 10 µM (COLO 205) [%] | inhibition at 10 µM (UO-31) [%] | inhibition at 10 µM (SF-539) [%] | inhibition at 10 µM (K-562) [%] | inhibition at 10 µM (MCF7) [%] | inhibition at 10 µM (HOP-92) [%] | inhibition at 10 µM (SNB-75) [%] | inhibition at 10 µM (CAKI-1) [%] | inhibition at 10 µM (CCRF-CEM) [%] | inhibition at 10 µM (RXF 393; 48 h) [%] | inhibition at 10 µM (IGROV1) [%] | other results |
| --- | --- | --- | --- | --- | --- | --- | --- | --- | --- | --- | --- | --- | --- | --- |
| COc1ccc(Oc2nc(Nc3ccc(N4CCOCC4)cc3)ncc2NC(=O)Cc2cc(OC)cc(OC)c2)cc1 [5e, 2-(3,5-Dimethoxyphenyl)-N-(4-(4-methoxyphenoxy)-2-((4-morpholinophenyl)amino)pyrimidin-5-yl)acetamide] | moderate to poor | 152.7 to 153.7 | -22.4 | 19.4 | 2.09 | 2.31 | 18.9 | 4.46 | -3.1 | -2.58 | -4.73 | -8.16 | -9.02 | – |
| COc1ccc(Oc2nc(Nc3ccc(N4CCOCC4)cc3)ncc2NC(=O)c2ccnc([N+](=O)[O-])c2)cc1 [5f, N-(4-(4-Methoxyphenoxy)-2-((4-morpholinophenyl)amino)pyrimidin-5-yl)-2-nitroisonicotinamide] | moderate to poor | 170 to 171 | -14.6 | 29 | 7.72 | 10.9 | 12.5 | 1.12 | -4.97 | 13.7 | 16.7 | -0.36 | 1.91 | – |
| COc1ccc(Oc2nc(Nc3ccc(N4CCOCC4)cc3)ncc2NC(=O)c2ccc3c(c2)OCO3)cc1 [5a, N-(4-(4-Methoxyphenoxy)-2-((4-morpholinophenyl)amino)pyrimidin-5-yl)benzo[d][1,3]dioxole-5-carboxamide] | – | 205.9 to 206.9 | 1.75 | 36.7 | 4.73 | 23.4 | 8.51 | 6.16 | -3.98 | 33.9 | 14.5 | 50.5 | 5.92 | inhibition at 10 µM (BRAF): 4.1 ± 10.5%; inhibition at 10 µM (CDK2/cyclin A): 20.1 ± 0.1%; inhibition at 10 µM (c-MER): 4.4 ± 0.1%; inhibition at 10 µM (PAK1): -29.1 ± 3.4%; inhibition at 10 µM (KDR/VEGFR2): 7.9 ± 1.4%; inhibition at 10 µM (JAK3): 11.2 ± 1.2% |
| COc1ccc(Oc2nc(Nc3ccc(N4CCOCC4)cc3)ncc2NC(=O)c2cccc(SC)c2)cc1 [5g, N-(4-(4-Methoxyphenoxy)-2-((4-morpholinophenyl)amino)pyrimidin-5-yl)-3-(methylthio)benzamide] | – | – | 4.7 | 43.7 | 21.1 | 29.1 | 21.5 | 20.2 | 21.5 | 29.4 | 13 | – | 33.9 | inhibition at 10 µM (RXF 393; RXF 393, 48 h): 70%; Percent Growth Inhibition (GI) (RXF 393; 48 h): 70.1% |
| CCOc1cc(OCC)cc(C(=O)Nc2cnc(Nc3ccc(N4CCOCC4)cc3)nc2Oc2ccc(OC)cc2)c1 [5d, 3,5-Diethoxy-N-(4-(4-methoxyphenoxy)-2-((4-morpholinophenyl)amino)pyrimidin-5-yl)benzamide] | moderate to poor | – | -2.11 | 29.9 | 8.01 | 30.7 | 14.4 | 3.34 | 19.2 | 20.6 | 26.1 | 27.5 | 0.72 | – |
| COc1ccc(Oc2nc(Nc3ccc(N4CCOCC4)cc3)ncc2NC(=O)c2ccc(OC)c(OC)c2)cc1 [5b, 3,4-Dimethoxy-N-(4-(4-methoxyphenoxy)-2-((4-morpholinophenyl)amino)pyrimidin-5-yl)benzamide] | moderate to poor | 119.1 to 120.1 | -2.21 | 33.6 | -3.17 | 8.76 | 4.24 | -1.19 | -4.29 | 20.6 | 5.37 | 20.4 | 3.6 | – |
| COc1ccc(Oc2nc(Nc3ccc(N4CCOCC4)cc3)ncc2NC(=O)c2cc(OC)c(OC)c(OC)c2)cc1 [5c, 3,4,5-Trimethoxy-N-(4-(4-methoxyphenoxy)-2-((4-morpholinophenyl)amino)pyrimidin-5-yl)benzamide] | – | 179.5 to 180.5 | 21.6 | 42.3 | 7.64 | 20.4 | 7.94 | 15.8 | 3.59 | 28.1 | 30.5 | 50.6 | 11.9 | – |
